Each molecule was assayed against T1, human S1P1 receptors (Homo sapiens, UniProt P21453) (assay: S1P1R antagonist assay (fluorescent membrane potential dye, cAMP readout)). Conditions: HEK293 cells expressing human S1P1 receptors and CNG channel; 500 nM NECA; S1P1R agonist 10 nM; 90 minutes; read-out: EC50 or IC50 value.
T1 construct: host or cells: HEK293
T1 sequence (P21453 whole entry): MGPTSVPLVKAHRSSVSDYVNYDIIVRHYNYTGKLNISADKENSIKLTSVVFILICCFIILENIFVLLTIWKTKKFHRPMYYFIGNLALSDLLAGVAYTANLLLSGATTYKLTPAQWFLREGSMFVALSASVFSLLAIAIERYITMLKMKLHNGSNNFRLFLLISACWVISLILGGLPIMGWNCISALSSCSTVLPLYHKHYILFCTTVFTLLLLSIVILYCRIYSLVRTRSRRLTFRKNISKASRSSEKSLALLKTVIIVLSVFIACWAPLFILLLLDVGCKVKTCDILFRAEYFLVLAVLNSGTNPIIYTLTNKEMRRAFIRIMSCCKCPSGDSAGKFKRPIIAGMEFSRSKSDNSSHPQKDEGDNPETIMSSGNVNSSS
Format: cell-based
Excerpt: The S1P1R antagonist assay is a fluorescent membrane potential dye measurement assay, indicative of intracellular cAMP changes due to G protein-coupled receptor activation. HEK293 cells engineered to express human S1P1 receptors and a cyclic nucleotide-gated (CNG) channel are obtained from BD Biosciences, 80300-250. The CNG channels are activated by elevated levels of cAMP, resulting in ion flux and cell membrane depolarization. Membrane depolarization is detected with a membrane potential dye. Stimulation of the cells with 5′-(N-ethylcarboxamido)adenosine (NECA), an A2b receptor agonist (Sigma, E2387), elicits an A2bR-dependent increase in cAMP.
Subsequent exposure of the cells to a S1P1R agonist suppresses the NECA induced increase in cAMP through S1P1R-specific signaling by inhibiting adenylyl cyclase and the formation of cAMP from ATP. The degree to which a test compound overcomes the S1P1R agonist suppression of the NECA induced increase in cAMP is a measure of S1P1R antagonist activity. Antagonist activity is quantified as the IC50 (i.e., the concentration needed to elicited one-half of the maximum response of the test compound) and/or as the EC50 (i.e., the concentration needed to elicited one-half of the NECA induced stimulation).
Day 1: Freshly thawed cells were plated into 384-well plates (Corning, 3683) at a density of 14,000 cells/well in 20 μL, complete media and incubated for 16 hours at 37° C., 5% CO2 and 99% relative humidity. Complete media included Dulbecco's modified Eagle's medium (Invitrogen, 11965-092), 10% Fetal bovine serum (Hyclone, SH30071.03), 250 μg/mL geneticin (Invitrogen, 10131-027), and 1 μg/mL Puromycin (Fluka, 82595).
Day 2: Membrane potential dye (20 μL, BD Biosciences, 341833) was added to each well and the plates were incubated for 2.5 hours at ambient temperature. Test compounds (20 μL) were added to the wells at various concentrations (≦10 μM, 1 to 3 dilutions) in a NECA base solution and incubated for 90 minutes in the presence of the S1P1R agonist {4-((4-phenyl-5-trifluoromethyl-2-thienyl)methoxy)benzyl}-3-azetidinecarboxylic acid (10 nM). The NECA-base solution contained Dulbecco's phosphate-buffered saline (Invitrogen, 14190-136), 2.5% DMSO (Fluka, 41648), 25 μM Ro 20-1724 (Sigma, B8279), and 500 nM NECA).
Assay plates were read with a PerkinElmer EnVision reader (Excitation 350 nm, Emission 590 nm) at time T=0 minutes, before compound addition and at time T=90 minutes. The signal was calculated as the ratio T90/T0. Data was analyzed in ActivityBase XE and graphs showing log of compound concentration (X-axis) vs. % activity (Y-axis) were generated for IC50 determinations. Percent activity was calculated with the following formula: (Signal−Agonist Control Signal)/(NECA Control Signal−Agonist Control Signal)×100.
`O=C(CCC(=O)C1CC1)NC(COCc1ccccc1)C(=O)Nc1ccc(Oc2ccccc2)cc1` (stereo not shown) [Compound 186, N-(3-(benzyloxy)-1-oxo-1-(4-phenoxyphenylamino)propan-2-yl)-4-cyclopropyl-4-oxobutanamide] was tested, and the IC50 was 300 to 1000 nM. Work on `O=C(Cc1cccc(Br)c1)NC(COCc1ccccc1)C(=O)Nc1ccc(Oc2ccccc2)cc1` (stereo not shown) [Compound 384, N-(2-oxo-1-{[(phenylmethyl)oxy]methyl}-2-{[4-(phenyloxy)phenyl]amino}ethyl)-2-(3-bromophenyl)acetamide] yielded an IC50 greater than 1000 nM. With `O=C(Cc1ccc2c(c1)OCO2)NC(COCc1ccccc1)C(=O)Nc1ccc(Oc2ccccc2)cc1` (stereo not shown) [Compound 328, N-(2-oxo-1-{[(phenylmethyl)oxy]methyl}-2-{[4-(phenyloxy)phenyl]amino}ethyl)-1,3-benzodioxol-5-ylacetamide] the IC50 was greater than 1000 nM. With `O=C(Cc1cccs1)N[C@@H](COCc1ccccc1)C(=O)Nc1ccc(Oc2ccccc2)cc1` [Compound 198, (S)-2-(2-(thien-2-yl)acetamido)-3-benzyloxy-N-(4-phenoxyphenyl)propanamide] the IC50 was 300 to 1000 nM. Work on `O=C(Cn1cncn1)N1C[C@H](Cc2ccccc2)C[C@H]1c1nc2cc(Oc3ccc(F)cc3)ccc2[nH]1` [Compound 12, 1-((2S,4R)-4-benzyl-2-(5-(4-fluorophenoxy)-1H-benzo[d]imidazol-2-yl)pyrrolidin-1-yl)-2-(1H-1,2,4-triazol-1-yl)ethanone] yielded an IC50 of 300 to 1000 nM. For `O=C(NC(COCc1ccccc1)C(=O)Nc1ccc(Oc2ccccc2)cc1)C1CC(=O)N(Cc2ccc(Cl)cc2)C1` (stereo not shown) [Compound 29, N-(3-(benzyloxy)-1-oxo-1-(4-phenoxyphenylamino)propan-2-yl)-1-(4-chlorobenzyl)-5-oxopyrrolidine-3-carboxamide], the IC50 was greater than 1000 nM. For `O=C(Nc1ccc(Oc2ccc(F)cc2)cc1)[C@@H]1C[C@@H](c2ccccc2)CN1C(=O)Cn1nccn1` [Compound 77, (2S,4S)-1-(2-(2H-1,2,3-triazol-2-yl)acetyl)-N-(4-(4-fluorophenoxy)phenyl)-4-phenylpyrrolidine-2-carboxamide], the IC50 was 300 to 1000 nM. `O=C(CCCC(=O)c1ccccc1)NC(COCc1ccccc1)C(=O)Nc1ccc(Oc2ccccc2)cc1` (stereo not shown) [Compound 318, 5-oxo-N-(2-oxo-1-{[(phenylmethyl)oxy]methyl}-2-{[4-(phenyloxy)phenyl]amino}ethyl)-5-phenylpentanamide] gave an IC50 greater than 1000 nM. `O=C(Nc1ccc(Oc2ccccc2)cc1)C(COCc1ccccc1)NC(=O)[C@H](O)Cc1ccccc1` (stereo partly drawn) [Compound 27, 3-(benzyloxy)-2-((R)-2-hydroxy-3-phenylpropanamido)-N-(4-phenoxyphenyl)propanamide] gave an IC50 greater than 1000 nM. Work on `O=C(CN1CCC(N2CCOCC2)CC1)N[C@@H](COCc1ccccc1)C(=O)Nc1ccc(Oc2ccc(F)cc2)cc1` [Compound 105, (S)-3-(benzyloxy)-N-(4-(4-fluorophenoxy)phenyl)-2-(2-(4-morpholinopiperidin-1-yl)acetamido)propanamide] yielded an IC50 greater than 1000 nM. `O=C(Nc1ccc(Oc2ccc(F)cc2)cc1)[C@@H]1C[C@@H](Cc2ccccc2F)CN1C(=O)Cn1cncn1` [Compound 106, (2S,4R)-1-(2-(1H-1,2,4-triazol-1-yl)acetyl)-4-(2-fluorobenzyl)-N-(4-(4-fluorophenoxy)phenyl)pyrrolidine-2-carboxamide] was tested, and the IC50 was no more than 300 nM. `COCC(=O)NC(COCc1ccccc1)C(=O)Nc1ccc(Oc2ccccc2)cc1` (stereo not shown) [Compound 284, N-(2-oxo-1-{[(phenylmethyl)oxy]methyl}-2-{[4-(phenyloxy)phenyl]amino}ethyl)-2-methoxyacetamide] showed an IC50 greater than 1000 nM. Work on `O=C(Cc1cnc[nH]1)N[C@@H](COCc1ccccc1)C(=O)Nc1ccc(Oc2ccc(Cl)cc2)c(Cl)c1` [Compound 154, (S)-2-(2-(1H-imidazol-4-yl)acetamido)-3-(benzyloxy)-N-(3-chloro-4-(4-chlorophenoxy)phenyl)propanamide] yielded an IC50 of no more than 300 nM. Work on `O=C(CN1CCC(N2CCCC2)CC1)N[C@@H](COCc1ccccc1)C(=O)Nc1ccc(Oc2ccc(F)cc2)cc1` [Compound 43, (S)-3-(benzyloxy)-N-(4-(4-fluorophenoxy)phenyl)-2-(2-(4-(pyrrolidin-1-yl)piperidin-1-yl)acetamido)propanamide] yielded an IC50 greater than 1000 nM. In the case of `Cc1ccc(C(=O)NC(COCc2ccccc2)C(=O)Nc2ccc(Oc3ccccc3)cc2)cc1C` (stereo not shown) [Compound 279, 3,4-dimethyl-N-(2-oxo-1-{[(phenylmethyl)oxy]methyl}-2-{[4-(phenyloxy)phenyl]amino}ethyl)benzamide], the IC50 is reported as greater than 1000 nM. In the case of `O=C(Nc1ccc(Oc2ccc(F)cc2)cc1)[C@@H]1C[C@@H](Cc2c(F)cc(F)cc2F)CN1C(=O)Cn1cncn1` [Compound 108, (2S,4R)-1-(2-(1H-1,2,4-triazol-1-yl)acetyl)-N-(4-(4-fluorophenoxy)phenyl)-4-(2,4,6-trifluorobenzyl)pyrrolidine-2-carboxamide], the IC50 is reported as no more than 300 nM. Work on `COc1ccc(C(=O)NC(COCc2ccccc2)C(=O)Nc2ccc(Oc3ccccc3)cc2)cc1` (stereo not shown) [Compound 270, 4-(methyloxy)-N-(2-oxo-1-{[(phenylmethyl)oxy]methyl}-2-{[4-(phenyloxy)phenyl]amino}ethyl)benzamide] yielded an IC50 greater than 1000 nM. In the case of `O=C(Cc1cccc(Cl)c1F)NC(COCc1ccccc1)C(=O)Nc1ccc(Oc2ccccc2)cc1` (stereo not shown) [Compound 191, 3-(benzyloxy)-2-(2-(3-chloro-2-fluorophenyl)acetamido)-N-(4-phenoxyphenyl)propanamide], the IC50 is reported as 300 to 1000 nM. `O=C(CN1CCC(Cc2ccccc2)CC1)N[C@@H](COCc1ccccc1)C(=O)Nc1ccc(Oc2ccc(F)cc2)cc1` [Compound 220, (S)-3-(benzyloxy)-2-(2-(4-benzylpiperidin-1-yl)acetamido)-N-(4-(4-fluorophenoxy)phenyl)propanamide] showed an IC50 of 300 to 1000 nM. Molecule `O=C(Cc1c[nH]cn1)N[C@@H](COCc1ccccc1)C(=O)Nc1cccc(Oc2ccccc2)c1` [Compound 243, (S)-2-(2-(1H-imidazol-4-yl)acetamido)-3-(benzyloxy)-N-(3-phenoxyphenyl)propanamide] has an IC50 of no more than 300 nM. In the case of `O=C(COc1ccccc1O)NC(COCc1ccccc1)C(=O)Nc1ccc(Oc2ccccc2)cc1` (stereo not shown) [Compound 26, 3-(benzyloxy)-2-(2-(2-hydroxyphenoxy)acetamido)-N-(4-phenoxyphenyl)propanamide], the IC50 is reported as greater than 1000 nM. In the case of `Cc1ccc(C[C@@H]2C[C@@H](C(=O)Nc3ccc(Oc4ccc(F)cc4)cc3)N(C(=O)Cn3cncn3)C2)cc1` [Compound 4], the IC50 is reported as no more than 300 nM. `COc1ccccc1N1CCN(CC(=O)N[C@@H](COCc2ccccc2)C(=O)Nc2ccc(Oc3ccc(F)cc3)cc2)CC1` [Compound 217, (S)-3-(benzyloxy)-N-(4-(4-fluorophenoxy)phenyl)-2-(2-(4-(2-methoxyphenyl)piperazin-1-yl)acetamido)propanamide] was tested, and the IC50 was 300 to 1000 nM. `COc1cccc(CC(=O)NC(COCc2ccccc2)C(=O)Nc2ccc(Oc3ccccc3)cc2)c1` (stereo not shown) [Compound 285, N-(2-oxo-1-{[(phenylmethyl)oxy]methyl}-2-{[4-(phenyloxy)phenyl]amino}ethyl)-3-methoxyphenylacetamide] showed an IC50 greater than 1000 nM. With `Cn1cnc(CC(=O)N[C@@H](COCc2ccccc2)C(=O)Nc2ccc(Oc3ccccc3)cc2)c1` [Compound 195, (S)-2-(2-(1-methyl-1H-imidazol-4-yl)acetamido)-3-benzyloxy-N-(4-phenoxyphenyl)propanamide] the IC50 was no more than 300 nM. With `O=C(Nc1ccc(Oc2ccc(F)cc2)cc1)[C@@H]1C[C@@H](NCc2ccccc2)CN1C(=O)Cn1cncn1` [Compound 179, (2S,4R)-1-(2-(1H-1,2,4-triazol-1-yl)acetyl)-4-(benzylamino)-N-(4-(4-fluorophenoxy)phenyl)pyrrolidine-2-carboxamide] the IC50 was no more than 300 nM. For `O=C(NC(COCc1ccccc1)C(=O)Nc1ccc(Oc2ccccc2)cc1)c1cnnc2ccccc12` (stereo not shown) [Compound 356, N-(2-oxo-1-{[(phenylmethyl)oxy]methyl}-2-{[4-(phenyloxy)phenyl]amino}ethyl)cinnoline-4-carboxamide], the IC50 was 300 to 1000 nM. Molecule `CC/C=C/CC(=O)NC(COCc1ccccc1)C(=O)Nc1ccc(Oc2ccccc2)cc1` (stereo not shown) [Compound 327] has an IC50 of 300 to 1000 nM.
